Columns and labels:
[1] = system: mouse TTR; assay: Serum TTR ELISA in mice after LNP delivery; assay type: in vivo; details: Table 3, guide G282, CD-1 female mice, 0.1 mpk i.v.; for Serum TTR: Exp. 1, 8, 9, 10; for Serum TTR % TSS: percentage of vehicle control (TSS)
Summary of the method: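 Mouse TTR in serum was quantified by ELISA (samples diluted e.g. 10,000- and/or 2,500-fold) 6–7 days after dosing CD-1 females with LNP, typically 0.1 mpk. Values are reported relative to vehicle-treated controls (%).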

[2] = pKa of amine lipid by TNS fluorescence; assay type: physicochemical; details: probe TNS (6-(p-toluidino)-2-naphthalenesulfonic acid sodium salt), unformulated amine lipid in ethanol, sodium phosphate buffers -9.0
Summary of the method: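 pKa derived from a sigmoidal fit of normalized TNS fluorescence (321 nm excitation, 448 nm emission) versus pH. Lipid from ethanol stock diluted to about 100 μM final in 0.1 M phosphate buffers, pH 4.5–9.0.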

[3] = system: mouse TTR gene; assay: In vivo editing in mouse liver, LNP with Cas9 mRNA and sgRNA G282, NGS; details: Table 3; guide G282; CD-1 female mice, 0.1 mpk i.v., liver at 6 or 7 days; Exp. 1, 8, 9, 10
Method: (§1) LNPs were prepared using various amine lipids in a 4-component lipid system consisting of an ionizable lipid (e.g. an amine lipid), DSPC, cholesterol and PEG-2k-DMG. In assays for percent liver editing in mice, Cas9 mRNA and chemically modified sgRNA targeting a mouse sequence were formulated in LNPs, at either a 1:1 w/w ratio or a 1:2 w/w ratio.
(§2) The lipid components were dissolved in 100% ethanol with the lipid component molar ratios described below. The chemically modified sgRNA and Cas9 mRNA were combined and dissolved in 25 mM citrate, 100 mM NaCl, pH 5.0, resulting in a concentration of total RNA cargo of approximately 0.45 mg/mL. The LNPs were formulated with an N/P ratio of about 6, with the ratio of chemically modified sgRNA: Cas9 mRNA at either a 1:1 or 1:2 w/w ratio as described below.
(§3) CD-1 female mice, ranging from 6-10 weeks of age were used in each study. Animals were weighed and grouped according to body weight for preparing dosing solutions based on group average weight. LNPs were dosed via the lateral tail vein in a volume of 0.2 mL per animal (approximately 10 mL per kilogram body weight). The animals were periodically observed for adverse effects for at least 24 hours post dose.
(§4) For studies measuring in vivo editing in liver, CD-1 female mice were dosed at 0.1 mpk unless otherwise noted. Animals were euthanized at 6 or 7 days by exsanguinationvia cardiac puncture under isoflourane anesthesia. Liver tissue was collected from each animal for DNA extraction and analysis. Blood was collected into serum separator tubes or into tubes containing buffered sodium citrate for plasma as described herein. Cohorts of mice were measured for editing by Next-Generation Sequencing (NGS).
(§5) In brief, to quantitatively determine the efficiency of editing at the target location in the genome, genomic DNA was isolated and deep sequencing was utilized to identify the presence of insertions and deletions introduced by gene editing.
(§6) PCR primers were designed around the target site (e.g., B2M), and the genomic area of interest was amplified. Additional PCR was performed according to the manufacturer's protocols (Illumina) to add the necessary chemistry for sequencing. The amplicons were sequenced on an Illumina MiSeq instrument. The reads were aligned to the relevant reference genome (e.g., GRCm38) after eliminating those having low quality scores. The resulting files containing the reads were mapped to the reference genome (BAM files), where reads that overlapped the target region of interest were selected and the number of wild type reads versus the number of reads which contain an insertion, substitution, or deletion was calculated.
(§7) The editing percentage (e.g., the “editing efficiency” or “percent editing”) is defined as the total number of sequence reads with insertions or deletions over the total number of sequence reads, including wild type.
(§8) We assessed in vivo editing efficiency for materials delivered with formulations including various amine lipid compounds. Editing was measured using either G282 (SEQ ID No: 1) which targets the mouse TTR gene or G650 (SEQ ID No. 2) which targets the mouse B2M gene. Lipids described above were assessed for efficacy through in vivo editing experiments. LNPs were formulated at a 1:1 w/w ratio of sgRNA to Cas9 mRNA, and at an N/P ratio of about 6. Molar concentrations of lipids in the lipid component of the LNPs are expressed as mol % amine lipid/DSPC/cholesterol/PEG-2k-DMG, e.g. 50/10/38.5/1.5. The final LNPs were characterized to determine the encapsulation efficiency, polydispersity index, and average particle size according to the analytical methods provided above. Analysis of average particle size, polydispersity (PDI), total RNA content and encapsulation efficiency of RNA are shown in Table 2.
To assess whether the editing was dose responsive, experiments were performed in vivo at various LNP dose levels. […]

[4] = system: mouse B2M gene; assay: In vivo editing in mouse liver, LNP with Cas9 mRNA and sgRNA G650, NGS; details: Table 3; guide G650; CD-1 female mice, 0.1 mpk i.v., liver at 6 or 7 days; Exp. 2-7
Method: as §1, §2, §3, §4, §5, §6, §7, §8

Row | SMILES | pKa [2] | Serum TTR [1] [µg/mL] | Serum TTR % TSS [1] [% TSS] | Editing Mean % Indel [3] [%] | Editing Mean % Indel [4] [%]
1 | CCCCC/C=C\C/C=C\CCCCCCCC(=O)OCC(COC(=O)CCCCCCC/C=C\C/C=C\CCCCC)OC(=O)CCC(OC(=O)NCCN(C)CC)C1CCCCC1 (centres unmarked) [Compound 41, 2-((4-cyclohexyl-4-(((2-(ethyl(methyl)amino)ethyl)carbamoyl)oxy)butanoyl)oxy) propane-1,3-diyl (9Z,9′Z,12Z,12′Z)-bis(octadeca-9,12-dienoate)] | 6.51 | 393 | 48 | 28.8 | 
2 | CCCCC/C=C\C/C=C\CCCCCCCC(=O)OCC(COC(=O)CCCCCCC/C=C\C/C=C\CCCCC)OC(=O)CCC(CCCCCCCCCCCC)OC(=O)NCCCN(C)C (centres unmarked) [Compound 8, 2-((4-(((3-(dimethylamino)propyl)carbamoyl)oxy)hexadecanoyl)oxy)propane-1,3-diyl] | 7.54 | 745 | 84 | 0.1 | 
3 | CCCCC/C=C\C/C=C\CCCCCCCC(=O)OCC(COC(=O)CCCCCCC/C=C\C/C=C\CCCCC)OC(=O)CCC(CCCCCCCCCCCC)OC(=O)OCCC1CCCN1C (centres unmarked) [Compound 16, 2-((4-(((2-(1-methylpyrrolidin-2-yl)ethoxy)carbonyl)oxy)hexadecanoyl)oxy) propane-1,3-diyl (9Z,9′Z,12Z,12′Z)-bis(octadeca-9,12-dienoate)] | 5.72 |  |  |  | 10.1
4 | CCCCC/C=C\C/C=C\CCCCCCCC(=O)OCC(COC(=O)CCCCCCC/C=C\C/C=C\CCCCC)OC(=O)CCC(CCCCCCCCCCCCCCCC)OC(=O)NCCN(C)CC (centres unmarked) [Compound 20, 2-((4-(((2-(ethyl(methyl)amino)ethyl)carbamoyl)oxy)icosanoyl)oxy)propane-1,3-diyl (9Z,9′Z,12Z,12′Z)-bis(octadeca-9,12-dienoate)] | 6.17 |  |  |  | 15.4
5 | CCCCC/C=C\C/C=C\CCCCCCCC(=O)OCC(COC(=O)CCCCCCC/C=C\C/C=C\CCCCC)OC(=O)CCCC(CCCCCCCCCCCC)OC(=O)NCCN(C)CC (centres unmarked) [Compound 28, 2-((5-(((2-(ethyl(methyl)amino)ethyl)carbamoyl)oxy)heptadecanoyl)oxy) propane-1,3-diyl (9Z,9′Z,12Z,12′Z)-bis(octadeca-9,12-dienoate)] | 6.06 |  |  |  | 17.8
6 | CCCCC/C=C\C/C=C\CCCCCCCC(=O)OCC(COC(=O)CCCCCCC/C=C\C/C=C\CCCCC)OC(=O)CCC(CCCCCCCCCCCC)OC(=O)OCCCCN(CC)CC (centres unmarked) [Compound 14, 2-((4-(((4-(diethylamino)butoxy)carbonyl)oxy)hexadecanoyl)oxy)propane-1,3-diyl (9Z,9′Z,12Z,12′Z)-bis(octadeca-9,12-dienoate)] | 5.91 |  |  |  | 20.6
7 | CCCCC/C=C\C/C=C\CCCCCCCC(=O)OCC(COC(=O)CCCCCCC/C=C\C/C=C\CCCCC)OC(=O)CCC(CCCCCCCCCCCC)OC(=O)C1(C)CCN(C)CC1 (centres unmarked) [Compound 10, 2-((4-((1,4-dimethylpiperidine-4-carbonyl)oxy)hexadecanoyl)oxy)propane-1,3-diyl (9Z,9′Z,12Z,12′Z)-bis(octadeca-9,12-dienoate)] | 6.05 |  |  |  | 5.3
8 | CCCCC/C=C\C/C=C\CCCCCCCC(=O)OCC(COC(=O)CCCCCCC/C=C\C/C=C\CCCCC)OC(=O)CCC(CCCCCCCCCCCC)OC(=O)NCCN(CC)CC (centres unmarked) [Compound 15, 2-((4-(((2-(diethylamino)ethyl)carbamoyl)oxy)hexadecanoyl)oxy)propane-1,3-diyl (9Z,9′Z,12Z,12′Z)-bis(octadeca-9,12-dienoate)] | 5.9 |  |  |  | 18.0
9 | CCCCC/C=C\C/C=C\CCCCCCCC(=O)OCC(COC(=O)CCCCCCC/C=C\C/C=C\CCCCC)OC(=O)CCC(CCCCCCCC)OC(=O)OCCCN(CC)CC (centres unmarked) [Compound 32, 2-((4-(((3-(diethylamino)propoxy)carbonyl)oxy)dodecanoyl)oxy)propane-1,3-diyl (9Z,9′Z,12Z,12′Z)-bis(octadeca-9,12-dienoate)] | 5.64 |  |  |  | 11.6
10 | CCCCC/C=C\C/C=C\CCCCCCCC(=O)OCC(COC(=O)CCCCCCC/C=C\C/C=C\CCCCC)OC(=O)CCC(CCCCCCCCCCCCCCCC)OC(=O)OCCCN(C)CC (centres unmarked) [Compound 18, 2-((4-(((3-(ethyl(methyl)amino)propoxy)carbonyl)oxy)icosanoyl)oxy)propane-1,3-diyl (9Z,9′Z,12Z,12′Z)-bis(octadeca-9,12-dienoate)] | 5.83 |  |  |  | 4.5

Continued, in another order:

Row | pKa [2] | SMILES | Serum TTR [1] [µg/mL] | Serum TTR % TSS [1] [% TSS] | Editing Mean % Indel [3] [%] | Editing Mean % Indel [4] [%]
11 | 6.53 | CCCCC/C=C\C/C=C\CCCCCCCC(=O)OCC(COC(=O)CCC(CCCCCCCCCCCC)OC(=O)OCCCN(C)C)OC(=O)CCCCCCC/C=C\C/C=C\CCCCC (centres unmarked) [Compound 30, 9-dodecyl-2-methyl-7,12-dioxo-6,8,13-trioxa-2-azahexadecane-15,16-diyl (9Z,9′Z,12Z,12′Z)-bis(octadeca-9,12-dienoate)] | 841 | 95 | 10.4 | 
12 | 5.89 | CCCCC/C=C\C/C=C\CCCCCCCC(=O)OCC(COC(=O)CCCCCCC/C=C\C/C=C\CCCCC)OC(=O)CCC(CCCCCCCCCCCC)OC(=O)OCCCN(C)CC (centres unmarked) [Compound 3, 2-((4-(((3-(ethyl(methyl)amino)propoxy)carbonyl)oxy)hexadecanoyl)oxy)propane-1,3-diyl (9Z,9′Z,12Z,12′Z)-bis(octadeca-9,12-dienoate)] | 691 | 78 | 23.7 | 
13 | 6.18 | CCCCC/C=C\C/C=C\CCCCCCCC(=O)OCC(COC(=O)CCCCCCC/C=C\C/C=C\CCCCC)OC(=O)CCC(CCCCCCCCCCCCCCCC)OC(=O)OCCCN(C)C (centres unmarked) [Compound 17, 2-((4-(((3-(dimethylamino)propoxy)carbonyl)oxy)icosanoyl)oxy)propane-1,3-diyl (9Z,9′Z,12Z,12′Z)-bis(octadeca-9,12-dienoate)] |  |  |  | 12.3
14 | 6.19 | CCCCCC/C=C\COC(=O)CCCCCCCC(=O)OCC(COC(=O)CCCCCCCC(=O)OC/C=C\CCCCCC)OC(=O)CCC(CCCCCCCCCCCC)OC(=O)NCCN(C)CC (centres unmarked) [Compound 23, O′1,O1-(2-((4-(((2-(ethyl(methyl)amino)ethyl)carbamoyl)oxy)hexadecanoyl)oxy)propane-1,3-diyl) 9,9′-di((Z)-non-2-en-1-yl) di(nonanedioate)] |  |  |  | 7.3
15 | 6.06 | CCCCCC/C=C\COC(=O)CCCCCCCC(=O)OCC(COC(=O)CCCCCCCC(=O)OC/C=C\CCCCCC)OC(=O)CCC(CCCCCCCCCCCC)OC(=O)OCCCN(C)C (centres unmarked) [Compound 22, O′1,O1-(2-((4-(((3-(dimethylamino)propoxy)carbonyl)oxy)hexadecanoyl)oxy)propane-1,3-diyl) 9,9′-di((Z)-non-2-en-1-yl) di(nonanedioate)] |  |  |  | 6.7
